Data taken from article PMC4806491, “The milk-derived fusion peptide, ACFP, suppresses the growth of primary human ovarian cancer cells by regulating apoptotic gene expression and signaling pathways” (BMC Cancer, 2016).
≈ marks a conversion by molar mass, not a printed value. Like-named read-outs stand apart in the source and are kept apart here. Residues, ends and D or L forms follow the SMILES beside them.

System: primary ovarian cancer cells
Assay type: cell-based, human
Conditions: for growth of human primary ovarian cells: different concentrations, in vitro, n=12, Figure S1
Procedure: Fresh primary ovarian tumor tissues that were assessed and classified as serous ovarian adenocarcinoma (III-IV grade) according to WHO criteria were collected from 53 ovarian cancer patients who underwent initial debulking surgery at the first affiliated hospital of Anhui Medical University between June 2012 and June 2014. All patients had not received adjuvant therapies, such as chemotherapy or radiotherapy, prior to surgery. For comparison, normal ovarian glandular epithelium cells (NOGECs) were cultured from fresh primary normal ovarian tissues harvested from 7 patients with uterine fibromas, which were confirmed as negative for any neoplastic disease by pathological examination. Prior to tissue deposition, all patients signed written consent forms confirming their donation of tissue for research purposes according to the Declaration of Helsinki. This study was approved by the Anhui Medical University Review Board. Tumor or normal ovarian tissues were cut into small 1.0 mm^3 pieces, rinsed two times in phosphate buffered saline (PBS) and digested with 0.25 % trypsin in a sterile centrifuge tube at 37 °C for 30 min. To obtain a single cell suspension cell, digested tissues were filtered with a 100 μm cell strainer. Cells were collected by centrifugation at 1000 rpm for five minutes, and the cell pellet was re-suspended in Dulbecco’s modified eagle medium (DMEM) supplemented with 10 % fetal bovine serum (FBS). Cells were subsequently cultured in DMEM containing 0.1 mg/L epidermal growth factor (EGF), 0.1 mg/L insulin-like growth factor (IGF) and 0.1 mg/L beta-estradiol with 10 % FBS in 5 % CO2 at 37 °C. Once cells reached 70 to 80 % confluence, cell culture medium was drained from the flask, and cells were digested with 0.25 % collagenase II until approximately 1/3 of the cells fell to the bottom of the dish by eye using a microscope. Due to their initial shedding, most fibroblasts were eliminated by collagenase digestion. The remaining cells were cultured in 5 % CO2 at 37 °C. To determine purity, cells were analyzed using immunofluorescence of cytokeratin 7 (for ovarian cancer cells) or cytokeratin 19 (for normal ovarian epithelium cells).
Primary ovarian cancer cells were seeded into 96-well plates in sextuplicate at a starting density of 5 × 10^3 cells/well and incubated with ACFP at the concentrations: 0 (as control), 5 × 10^−6, 5 × 10^−5, 5 × 10^−4, 5 × 10^−3, 5 × 10^−2, 5 × 10^−1 and 5 g/L for 24, 48 and 72 h, respectively. Cells treated with paclitaxel at 5 × 10^−4 g/L were included in the same plate as a positive control. Cell viability was later measured using the WST-1 (water-soluble tetrazolium 1) cell viability and cytotoxicity assay kit (Beyotime, Haimen, China) according to the manufacturer’s instructions. The percent viability of cells was calculated using the formula to calculate the cell viability ratio (VR): VR (%) = (the experimental group A450nm value/control group A450nm value) × 100 %. To assess general toxicity of ACFP, viability of normal ovarian cells treated with ACFP was assayed using the same procedure. The effect of ACFP was compared with LfcinB and PGPIPN (the products of Shanghai Sangon Biological Engineering Technology, China). Each experiment was performed in two independent sets.

| IC50, cell viability (24 h) [µg/mL] | IC50, cell viability (48 h) [µg/mL] | IC50, cell viability (72 h) [µg/mL] | SMILES | growth of human primary ovarian cells (48 h) |
| --- | --- | --- | --- | --- |
| – | – | – | CC[C@H](C)[C@@H]1NC(=O)[C@H](CO)NC(=O)[C@@H]2CCCN2C(=O)[C@H](C)NC(=O)CNC(=O)[C@H](CC(C)C)NC(=O)[C@H](CCCCN)NC(=O)[C@H](CCCCN)NC(=O)[C@H](CCSC)NC(=O)[C@H](CCCNC(=N)N)NC(=O)[C@H](Cc2c[nH]c3ccccc23)NC(=O)[C@H](CCC(N)=O)NC(=O)[C@H](Cc2c[nH]c3ccccc23)NC(=O)[C@H](CCCNC(=N)N)NC(=O)[C@H](CCCNC(=N)N)NC(=O)[C@@H](NC(=O)[C@H](CCCCN)NC(=O)[C@@H](N)Cc2ccccc2)CSSC[C@@H](C(=O)N[C@H](C(=O)N[C@@H](CCCNC(=N)N)C(=O)N[C@@H](CCCNC(=N)N)C(=O)N[C@@H](C)C(=O)N[C@@H](Cc2ccccc2)C(=O)O)C(C)C)NC(=O)[C@H]([C@@H](C)O)NC1=O [LfcinB] | decreased growth |
| 14.5 (≈ 24.4 µM) | 9.3 (≈ 15.7 µM) | 1.24 (≈ 2.09 µM) | CC[C@H](C)[C@H](NC(=O)[C@@H]1CCCN1C(=O)CNC(=O)[C@@H]1CCCN1)C(=O)N1CCC[C@H]1C(=O)N[C@@H](CC(N)=O)C(=O)O [PGPIPN] (H-PGPIPN-OH) | decreased growth |
